Test results taken from patent US20040023998A1, “Novel crystals of 1,3,4-oxadiazole derivatives, process for producing the crystals and medicines containing the same as the active ingredient” (priority 2000, published 2004).
Converted amounts (≈) assume the structure as drawn.

Key:
[1] = Description: Moreover, for removing tetrahydrofuran in this Type-1 crystals and obtaining Type-1 crystals, it is necessary to reflux them in ethanol.
[2] = Solubility of compound of the present invention in various solvents (saturated solution, HPLC); format: physicochemical
Procedure: The compound of the present invention was added to various solvents so that a saturated state was achieved. Each mixture was stirred for 30 seconds by means of a laboratory mixer and then allowed to stand for 4 minutes and 30 seconds. The stirring and standing operations were repeated seven times. The mixture was centrifuged at 3000 rpm for 15 minutes and isoamyl 4-hydroxybenzoate was added as an internal standard to the resulting supernatant. Furthermore, acetonitrile was added to the supernatant to form a sample solution. A portion (8 μL) of each solution was analyzed using high performance liquid chromatography (HPLC) under the following conditions to determine its concentration by the internal standard method, and thereby solubility was calculated. Additionally, pH at the dissolution was measured.
HPLC measuring conditions
Eluent: 20 mmol/L aqueous potassium dihydrogen phosphate solution (pH 8.0, sodium hydroxide)/acetonitrile=65/35
As the buffer (buffer solution) in Table 5, Briton-Robinson Buffer having an ionic strength of 0.2 was used.

[3] = Stability test (storage of solid, residual ratio by HPLC); format: physicochemical; settings: all storage conditions of Table 6
Procedure: The compound of the present invention (about 50 mg) was weighed in a test tube and stored under the following conditions. The stored sample was analyzed using high performance liquid chromatography (HPLC) to calculate its residual ratio by the internal standard method.
Condition 1: 60° C., sealed, 1 month;
Condition 2: 40° C., open, 75%RH (relative humidity), 3 months;
Condition 3: 40° C., sealed, 6 months;
Condition 4: 25° C., open, 60%RH (relative humidity), 12 months;
Condition 5: 5° C., sealed, 12 months;
The HPLC measurement was carried out under the same conditions as in Example 2 described above.

solubility at 35 min ([2]; aqueous buffer, thermodynamic from solid, Buffer pH 3.0 (Briton-Robinson, ionic strength 0.2), pH at dissolution 3.0) [µg/mL]	solubility at 35 min ([2]; aqueous buffer, thermodynamic from solid, Buffer pH 5.0 (Briton-Robinson, ionic strength 0.2), pH at dissolution 5.0) [µg/mL]	solubility at 35 min ([2]; aqueous buffer, thermodynamic from solid, Buffer pH 7.0 (Briton-Robinson, ionic strength 0.2), pH at dissolution 7.0) [µg/mL]	solubility at 35 min ([2]; aqueous buffer, thermodynamic from solid, Buffer pH 9.0 (Briton-Robinson, ionic strength 0.2), pH at dissolution 8.6) [µg/mL]	solubility at 35 min ([2]; organic solvent or mixture, thermodynamic from solid, solvent: Acetonitrile) [µg/mL]	solubility at 35 min ([2]; organic solvent or mixture, thermodynamic from solid, solvent: Ethanol) [µg/mL]	solubility at 35 min ([2]; organic solvent or mixture, thermodynamic from solid, solvent: Methanol) [µg/mL]	solubility at 35 min ([2]; organic solvent or mixture, thermodynamic from solid, solvent: Octanol) [µg/mL]	solubility at 35 min ([2]; pH 7.3, thermodynamic from solid, solvent: Purified water, pH at dissolution 7.3) [µg/mL]	Stability (conclusion from Table 6) [3]	SMILES	Stability of the form in water [1]	Toxicity (Toxicity)
										CC(C)C(NC(=O)Cn1c(-c2ccccc2)ncc(N)c1=O)C(=O)c1nnc(C(C)(C)C)o1 (racemic) [Type-1 crystals, 2-[5-Amino-6-oxo-2-phenyl-1,6-dihydro-1-pyrimidyl]-N-[1-(2-[5-t-butyl-1,3,4-oxadiazolyl]carbonyl)-2-(R,S)-methylpropyl]acetamide, reference compound]	promptly results in precipitation of Type-2 crystals	
122 (≈ 270 µM)	104 (≈ 230 µM)	94 (≈ 208 µM)	45 (≈ 99.4 µM)	19100 (≈ 42200 µM)	7290 (≈ 16100 µM)	33600 (≈ 74300 µM)	710 (≈ 1570 µM)	73 (≈ 161 µM)	sufficiently stable	CC(C)C(NC(=O)Cn1c(-c2ccccc2)ncc(N)c1=O)C(=O)c1nnc(C(C)(C)C)o1 (racemic) [compound of the present invention, 2-[5-amino-6-oxo-2-phenyl-1,6-dihydro-1-pyrimidyl]-N-[1-(2-[5-t-butyl-1,3,4-oxadiazolyl]carbonyl)-2-(R,S)-methylpropyl]acetamide]		sufficiently low toxicity
